{"source": "patent US4265829A", "about": "“Halogenated-naphthalenetriyltris(sulfonylimino)-aryl disulfonic acids and salts thereof” (American Cyanamid Company, priority 1979, dated 1981)", "key": {"activated human C1": {"biological_target": "activated human C1 (Homo sapiens, UniProt P09871)", "assay": "Test Code 026 (C1 inhibitor)", "type": "biochemical", "conditions": "serial twofold dilution assay; higher well number indicates higher activity", "excerpt": "(§1) An active inhibitor protects C2 from C1 and C4; (ii) Test Code 035 (C3-C9 inhibitor)--This test determines the ability of the late components of human complement (C3-C9) to lyse EAC 142 in the presence of appropriate dilutions of the test compound. An active inhibitor protects EAC 142 from lysis by human C3-C9; (iii) Test Code 036 (C-Shunt inhibitor)--In this test human erythrocytes rendered fragile are lysed in autologous serum via the shunt pathway activated by cobra venom factor in the presence of appropriate dilutions of the test compound. Inhibition of the shunt pathway results in failure of lysis; (iv) Forssman Vasculitis Test--Here, the well known complement dependent lesion, Forssman vasculitis, is produced in guinea pigs by intradermal injection of rabbit anti-Forssman antiserum. […] Percent inhibition is calculated by comparison with simultaneous controls. […]"}, "[1]": {"system": "shunt pathway activated by cobra venom factor", "assay": "Test Code 036 (C-Shunt inhibitor)", "type": "cell-based", "conditions": "serial twofold dilution assay; human erythrocytes in autologous serum; higher well number indicates higher activity", "excerpt": "as §1"}, "[2]": {"system": "serum complement activity", "assay": "Guinea Pig Intraperitoneal Test (GPIP)", "type": "in vivo", "conditions": "200 mg./kg. i.p.", "excerpt": "An active inhibitor protects C2 from C1 and C4; (ii) Test Code 035 (C3-C9 inhibitor)--This test determines the ability of the late components of human complement (C3-C9) to lyse EAC 142 in the presence of appropriate dilutions of the test compound. An active inhibitor protects EAC 142 from lysis by human C3-C9; (iii) Test Code 036 (C-Shunt inhibitor)--In this test human erythrocytes rendered fragile are lysed in autologous serum via the shunt pathway activated by cobra venom factor in the presence of appropriate dilutions of the test compound. Inhibition of the shunt pathway results in failure of lysis; (iv) Forssman Vasculitis Test--Here, the well known complement dependent lesion, Forssman vasculitis, is produced in guinea pigs by intradermal injection of rabbit anti-Forssman antiserum. The lesion is measured in terms of diameter, edema and hemorrhage and the extent to which a combined index of these is inhibited by prior intraperitoneal injection of the test compound at 200 mg./kg. is then reported, unless otherwise stated; (v) Forssman Shock Test--Lethal shock is produced in guinea pigs by an i.v. injection of anti-Forssman antiserum and the harmonic mean death time of treated guinea pigs is compared with that of simultaneous controls; (vi) Complement Level Reduction Test--In this test, the above dosed guinea pigs, or others, are bled for serum and the complement level is determined in undiluted serum by the capillary tube method of U.S. Pat. No. 3,876,376 and compared to undosed control guinea pigs; (vii) Cap 50 Test--Here, appropriate amounts of the test compound are added to a pool of guinea pig serum in vitro, after which the undiluted serum capillary tube assay referred to above is run. The concentration of compound inhibiting 50% is reported; (viii) Guinea Pig Intraperitoneal Test (GPIP)--Guinea pigs weighing about 300 g. are dosed intraperitoneally (i.p.) with 200 mg./kg. of the test compound dissolved in saline and adjusted to pH 7-8. […] Percent inhibition is calculated by comparison with simultaneous controls. […]"}, "[3]": {"system": "late components of human complement (C3-C9)", "assay": "Test Code 035 (C3-C9 inhibitor)", "type": "biochemical", "conditions": "serial twofold dilution assay; lysis of EAC 142; higher well number indicates higher activity", "excerpt": "as §1"}}, "note": "Where a name gives a salt, the structure may show the parent alone."}
{"smiles": "O=S(=O)(O)c1cc(NS(=O)(=O)c2cc(S(=O)(=O)Nc3cc(S(=O)(=O)O)cc(S(=O)(=O)O)c3)c3c(Cl)ccc(S(=O)(=O)Nc4cc(S(=O)(=O)O)cc(S(=O)(=O)O)c4)c3c2)cc(S(=O)(=O)O)c1", "note": "[5,5',5\"-[(8-Chloro-1,3,5-napthalenetriyl)tris (sulfonylimino)]-tri-1,3-benzenedisulfonic acid, hexasodium salt]", "values": [{"measurement": "Cl 026 Wells", "setting": "activated human C1", "result": "+7 Wells"}, {"measurement": "Shunt Inhibition 036 Wells", "setting": "[1]", "result": "+5 Wells"}, {"measurement": "In Vivo Activity (Guinea Pig) % Inhibition Intraperitoneal, 30 minutes", "setting": "[2]; serum taken 30 minutes after injection", "result": -67, "unit": "%"}, {"measurement": "In Vivo Activity (Guinea Pig) % Inhibition Intraperitoneal, 60 minutes", "setting": "[2]; serum taken 60 minutes after injection", "result": -72, "unit": "%"}, {"measurement": "In Vivo Activity (Guinea Pig) % Inhibition Intraperitoneal, 120 minutes", "setting": "[2]; serum taken 120 minutes after injection", "result": -81, "unit": "%"}, {"measurement": "C-Late 035 Wells", "setting": "[3]", "result": "+1 Wells"}]}
